Common to all, as to format: cell-based
Experiment [1] relates to Salmonella Enteritidis. From the text: (§1) Putative antimicrobial peptides were synthesized by GeneScript. A-list antimicrobial peptides re-synthesized by GeneScript. P2_CCH, P5_CCH, and P5_CCH_A19K were each synthesized under two conditions: standard synthesis using TFA, and the other with TFA-removal using acetate as a counter-ion. A MIC method, adapted for use with cationic antimicrobial peptides, was used to evaluate MIC antimicrobial activity (Hancock 1999).
(§2) The following data are presented to show the activity (MIC/MBC in μg/mL) of certain antimicrobial peptides described herein relative to a modified/synthetic version having a specified substitution. While data presented in tables above may be presented again, or may be represented in data provided in the tables below, such duplication is believed to assist the reader in readily noting comparisons. Different Run Numbers noted in the following tables denotes experiments conducted on different days, with each run reflecting multiple n values.

The test system of experiment [2] is Staphylococcus aureus—ATCC 29213 “wild type”. The conditions noted are these: for MIC: ATCC 29213. How it is done: Independent experiments were conducted with different strains of Staphylococcus aureus—ATCC 29213 “wild type”; and Staphylococcus aureus—Methicillin resistant Staphylococcus aureus.
(§3) The ATCC (American Type Culture Collection) strains received from Cedarlane. Multi drug resistant (MDR) strains, as clinical isolates, were received from the laboratory of Dr. Linda Hoang.
as §1, §2

For experiment [3], the system named is Escherichia coli—ATCC 25922 “wild type”. How it is done:
(§4) Independent experiments were conducted with four strains of E. coli, including ATCC E. coli (Escherichia coli—ATCC 25922 “wild type”); ESBL E. coli (Escherichia coli—Extended spectrum beta-lactamase); CPO E. coli (KPC) (Escherichia coli—Carbapenemase-producing organism; Klebsiella pneumoniae carbapenemase); and CPO E. coli (NDM) (Escherichia coli—Carbapenemase-producing organism; New-Dehli Metallobetalactamase).
as §3, §1, §2

The subject of experiment [4] is Escherichia coli—Carbapenemase-producing organism; New-Dehli Metallobetalactamase. How it is done: as §4, §3, §1, §2
Experiment [5] has as its system Escherichia coli—Extended spectrum beta-lactamase. How it is done: as §4, §3, §1, §2
For experiment [6], the system named is Escherichia coli—Carbapenemase-producing organism; Klebsiella pneumoniae carbapenemase. As for the experimental part: as §4, §3, §1, §2
Experiment [7] has as its system Salmonella Heidelberg (MDR).
Description: as §3, §1, §2

The test system of experiment [8] is Mycobacterium smegmatis (MC^2155). The following applies: Mycobacterium (MC^2155). The essentials:
(§5)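 MIC and MBC were run by broth microdilution adapted from Hancock cationic-AMP and CLSI methods, in Mueller Hinton broth (+5% lysed horse blood for S. pyogenes) at about 5×10^5 CFU/mL. Peptides came from two-fold 10× stocks (2560–5 μg/mL) and were incubated 16-24 h at 37 °C. For MBC, the MIC well and two more-concentrated wells were plated on MHA for 24 h at 37 °C.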

The subject of experiment [9] is Pseudomonas aeruginosa: ATCC 10148. The conditions noted are these: ATCC 10148. The gist of the method:
as §5

The subject of experiment [10] is Streptococcus pyogenes: unknown strain, hospital isolate. The conditions noted are these: unknown strain, hospital isolate. The essentials: as §5
Experiment [11] concerns Staphylococcus aureus: ATCC 6538P. The following applies: ATCC 6538. The gist of the method:
as §5

The test system of experiment [12] is Escherichia coli: ATCC 9723H. The following applies: ATCC 9723. The gist of the method: as §5
Where [13] appears, read: Salmonella Heidelberg (MDR), Run No. 2.
[14] abbreviates: Salmonella Heidelberg (MDR), Run No. 3.

This is an account of results in US12280090B2, “Antimicrobial peptides” (priority 2018, dated 2025).

≈ marks a conversion by molar mass, not a printed value. Where two headings read alike, the source gives them in different places. Ends that are not written are not given here. Peptide text beside a SMILES is read from it. A value given as a limit tells only on which side of the number the result lay.

Take `CC[C@H](C)[C@H](NC(=O)[C@H](CCCCN)NC(=O)[C@H](CCC(=O)O)NC(=O)[C@H](CCCCN)NC(=O)[C@H](CO)NC(=O)[C@H](CCCCN)NC(=O)[C@H](CCCNC(=N)N)NC(=O)[C@H](Cc1ccccc1)NC(=O)[C@H](Cc1ccccc1)NC(=O)[C@H](CC(=O)O)NC(=O)CNC(=O)[C@H](CC(C)C)NC(=O)[C@@H](N)CC(C)C)C(=O)NCC(=O)N[C@@H](CCCCN)C(=O)N[C@@H](CCC(=O)O)C(=O)N[C@@H](Cc1ccccc1)C(=O)N[C@@H](CCCCN)C(=O)N[C@@H](CCCNC(=N)N)C(=O)N[C@H](C(=O)N[C@H](C(=O)N[C@@H](CCC(N)=O)C(=O)N[C@@H](CCCNC(=N)N)C(=O)N[C@H](C(=O)N[C@@H](CCCCN)C(=O)N[C@@H](CC(=O)O)C(=O)N[C@@H](Cc1ccccc1)C(=O)N[C@@H](CC(C)C)C(=O)N[C@@H](CCCNC(=N)N)C(=O)N[C@@H](CC(N)=O)C(=O)N[C@@H](CC(C)C)C(=O)N[C@H](C(=O)N1CCC[C@H]1C(=O)N[C@@H](CCCNC(=N)N)C(=O)N[C@H](C(=O)N[C@@H](CCC(=O)O)C(=O)N[C@@H](CO)C(=O)O)[C@@H](C)O)C(C)C)[C@@H](C)CC)C(C)C)[C@@H](C)CC` [LL-37, reference compound]: the “Minimum Inhibitory Concentration (MIC)” value in [1] (S. enterica spp. Enteritidis, Gram negative) was 64+ ug/mL; in experiment [2] (S. aureus ATCC 29213, Gram positive), 128+ ug/mL.
Usually MBC stands for the smallest concentration meeting the test's criterion for killing. Read a low MBC as greater bactericidal potency. Usually MIC stands for the smallest concentration in the dilution series that meets the test's criterion for growth inhibition. `CC[C@H](C)[C@H](NC(=O)[C@H](CCCCN)NC(=O)[C@@H](NC(=O)[C@H](C)NC(=O)[C@H](Cc1ccccc1)NC(=O)[C@H](CC(=O)O)NC(=O)[C@H](CCCCN)NC(=O)CNC(=O)[C@@H](NC(=O)[C@@H](NC(=O)[C@H](CCCCN)NC(=O)[C@@H](NC(=O)[C@@H](NC(=O)[C@H](CC(=O)O)NC(=O)[C@H](CC(C)C)NC(=O)[C@H](CC(C)C)NC(=O)CN)[C@@H](C)CC)[C@@H](C)CC)[C@@H](C)O)[C@@H](C)O)C(C)C)C(=O)N[C@@H](CC(C)C)C(=O)N[C@@H](CC(=O)O)C(=O)N[C@@H](CC(N)=O)C(=O)N[C@@H](CC(C)C)C(=O)N[C@@H](CCCCN)C(=O)N[C@@H](CS)C(=O)N[C@@H](CCCCN)C(=O)N[C@@H](CC(C)C)C(=O)N[C@@H](C)C(=O)NCC(=O)NCC(=O)N[C@@H](CS)C(=O)N1CCC[C@H]1C(=O)N[C@@H](CCCCN)C(=O)O` [Peptide P4_CCH_P31K] (H-GLLDIIKTTGKDFAVKILDNLKCKLAGGCPK-OH; N-terminus and C-terminus assumed): the values for the MBC in experiment [1] and in experiment [5] were 256 µg/mL (≈ 78.2 µM) and 32 µg/mL (≈ 9.77 µM), respectively. Further, the MIC in experiment [1] stood at 256 µg/mL (≈ 78.2 µM); in [5], 32 µg/mL (≈ 9.77 µM); in experiment [7], 128 µg/mL (≈ 39.1 µM). Besides, the “Minimum Inhibitory Concentration (MIC)” value was 16 to 32 µg/mL in [3]; 32 to 64 µg/mL in experiment [4]; 32 µg/mL in [5]; 16 to 32 µg/mL in [6]; 128+ ug/mL in experiment [7] (S. enterica spp. Heidelberg, Gram negative).
In the case of “ALVAKIQKFPVFNTLKLCKLELEII [Peptide P11_CCH]”, the MIC in [1] is 32 µg/mL; in experiment [2], 64 µg/mL; in experiment [8] it was greater than 256 µg/mL; in [9], greater than 256 µg/mL; in experiment [10], greater than 256 µg/mL; in [11], greater than 256 µg/mL. The MIC in experiment [12] was greater than 256 µg/mL; in experiment [7], 128 µg/mL. The minimum bactericidal concentration (MBC) in experiment [8], in [9], in experiment [10], in [11] and in experiment [12] was greater than 256 µg/mL throughout.
Take “ALVAKIQKFPVFNTLKLCKLKLRII [P11_CCH_E21K_E23R]”: the MIC amounted to 64 µg/mL in experiment [1], 128 µg/mL in experiment [2] and 128 µg/mL in [7]. Also, the MBC in experiment [3] is 32 µg/mL; in experiment [4], 128 µg/mL.
For “ATAWMIPPRGMQPIIPIRIRPLCGKQ [P7_CCH_P9R_R5M]”, the MIC in [3] came to 256 µg/mL; in [4] it was 256 µg/mL; in experiment [5], 128 µg/mL; in [6], 256 µg/mL; in experiment [2] it was 128 µg/mL. Further, the figures for the MBC in experiment [5] and in experiment [6] were 128 µg/mL and 256 µg/mL, respectively.
In the case of “FFPRVLPLANKFLPTIYCALPKSVGN [Peptide P2_CCH]”, the MBC in experiment [1] is 64 µg/mL; in experiment [9] it was greater than 256 µg/mL; in [10], greater than 256 µg/mL; in experiment [11], greater than 256 µg/mL; in experiment [7] it was 128 µg/mL. Moreover, the MIC is 64 µg/mL in experiment [1]; 16 µg/mL in experiment [8]; greater than 256 µg/mL in [9]; greater than 256 µg/mL in [10]; greater than 256 µg/mL in experiment [11]; 128 µg/mL in experiment [7]. Besides, the “Minimum Inhibitory Concentration (MIC)” value is 64 µg/mL in experiment [1]; 16 µg/mL in experiment [3]; 16 µg/mL in [4]; 16 µg/mL in experiment [5]; 16 to 32 µg/mL in [6]; 128 µg/mL in experiment [7].
Consider IQRLPVIKMLKLWKLELKII [P13_CCH_N8K_E18K], for which the MIC in experiment [1] is 16 µg/mL; in experiment [3] it was 32 µg/mL; in [4] (CPO E. coli (NDM), Run No. 4), ~64? μg/mL; in [4] (CPO E. coli (NDM), Run No. 5), ~64? μg/mL; in experiment [6], 64 µg/mL; in experiment [2] it was 256 µg/mL. For the same compound, the MIC in [7] was 32 µg/mL; in experiment [7] (setting [13]) it was ~16? μg/mL; in [7] (setting [14]), ~16? μg/mL.
Consider IQRLPVINMLKLWKLELEII [Peptide P13_CCH], for which the minimum inhibitory concentration (MIC) in [1] is 16 µg/mL; in [4], 256 µg/mL; in experiment [2], 128 µg/mL; in experiment [8], greater than 256 µg/mL; in experiment [9], greater than 256 µg/mL; in [10], greater than 256 µg/mL. Besides, the MIC in experiment [11] is greater than 256 µg/mL; in experiment [12], greater than 256 µg/mL; in [7] it was 32 µg/mL; in [7] (setting [13]), ~32? μg/mL; in experiment [7] (setting [14]), ~32? μg/mL. For the same compound, the MBC in [8], in [9], in experiment [10], in experiment [11] and in experiment [12] was greater than 256 µg/mL in each case.
